Reference: patent publication US20140315876A1, “BETA-LACTAMASE INHIBITORS” (priority 2013, published 2014)
Counter-ions that a name gives are not always drawn.

System: bacterial strains that express the class D cephalosporinase OXA-15
Experiment: Synergy MIC / standard BLI potentiation MIC assay, strains expressing OXA-15
Type: cell-based, E. coli
Conditions: in the presence of a β-lactam; comparator Avibactam (comparator compound CCC)
Method: The experimental protocol was performed according to Clinical and Laboratory Standards Institute (CLSI) guidelines with modifications as described below (CLSI guidelines can be derived from the CLSI document M07-A9 published in January 2012: “Methods for Dilution Antimicrobial Susceptibility Tests for Bacteria That Grow Aerobically; Approved Standard-Ninth Edition”).
To prepare for MIC testing, frozen glycerol stocks of clinical isolates (Klebsiella pneumoniae, Eschericia coli, Enterobacter spp, Citrobacter spp, or Pseudomonas aeruginosa) were used to streak for isolated colonies on rich, non-selective, tryptic soy agar containing 5% sheep's blood (TSAB). Frozen glycerol stocks of laboratory engineered, isogenic E. coli strains, which contain cloned β-lactamase expressing plasmids were used to streak for isolated colonies on rich, selective LB agar supplemented with 25 μg/mL tetracycline to maintain the plasmid. All strains were incubated at 37° C. for 18-24 hrs.
On the day of testing, primary cultures were started by scraping off 5-10 colonies from the TSAB plates containing clinical strains or the tetracycline supplemented LB plates containing engineered strains. The clinical strain material was suspended in ˜5 mL of cation adjusted Mueller Hinton Broth (CAMHB) in 14 mL culture tubes. The engineered strain material was suspended in CAMHB (supplemented with 25 μg/mL tetracycline) in 14 mL culture tubes. All strains were incubated at 37° C. with aeration (200 rpm) for ˜2 hrs until the optical density at 600 nm (OD600) was ≧0.1.
The two compound components of the assay were each diluted in CAMHB and added to the 96-well broth microdilution assay plates. 50 μL of the β-lactam was added to each well of the assay plate in 2-fold dilutions with final concentrations ranging from 128 to 0.13 μg/mL. 25 μL of the BLI compound was added to all wells in the broth microdilution plates at a final concentration of 4 μg/mL. Inoculum cultures were prepared by standardizing the primary cultures to OD600=0.1 and then adding 20 μL of the adjusted primary culture per 1 mL CAMHB for clinical strains or CAMHB (supplemented with tetracycline at 100 μg/mL) for engineered strains, so that the final inoculum density was ˜10^5 colony forming units per milliliter. Diluted inoculum cultures were used to inoculate 25 μL per well in 96-well broth microdilution assay plates. The final volume of each well was 100 μL and contained a β-lactam at different concentrations, a BLI compound at 4 μg/mL concentration, the bacterial culture at an OD600 of approximately 0.001 and when necessary tetracycline at 25 μg/mL.
Plates were incubated for 18-20 hours at 37° C. with aeration (200 rpm). Following incubation, growth was confirmed visually placing plates over a viewing apparatus (stand with a mirror underneath) and then OD600 was measured using a SpectraMax 340PC384 plate reader (Molecular Devices, Sunnyvale, Calif.). Growth was defined as turbidity that could be detected with the naked eye or achieving minimum OD600 of 0.1. MIC values were defined as the lowest concentration producing no visible turbidity.
The synergy MIC (sMIC) assay determines the concentration of the BLI required to potentiate the activity of a fixed concentration of a β-lactam antibiotic against β-lactamase producing bacterial strains. The experimental protocol was performed according to Clinical and Laboratory Standards Institute (CLSI) guidelines with modifications as described below (CLSI guidelines can be derived from the CLSI document M07-A9 published in January 2012: “Methods for Dilution Antimicrobial Susceptibility Tests for Bacteria That Grow Aerobically; Approved Standard-Ninth Edition”). […]

Compound: N[C@H]1CC[C@@H](c2nnc([C@@H]3CC[C@@H]4CN3C(=O)N4OS(=O)(=O)O)o2)CC1 [Compound 780, (2S,5R)-2-(5-((1s,4R)-4-aminocyclohexyl)-1,3,4-oxadiazol-2-yl)-7-oxo-1,6-diazabicyclo[3.2.1]octan-6-yl hydrogen sulfate]
- activity against bacterial strains that express the class D cephalosporinase OXA-15, compared with Avibactam: more active than Avibactam

Compound: N=C(N)NCCCc1nnc([C@@H]2CC[C@@H]3CN2C(=O)N3OS(=O)(=O)O)o1 [Compound 714, (2S,5R)-2-(5-(3-guanidinopropyl)-1,3,4-oxadiazol-2-yl)-7-oxo-1,6-diazabicyclo[3.2.1]octan-6-yl hydrogen sulfate]
- activity against bacterial strains that express the class D cephalosporinase OXA-15, compared with Avibactam: more active than Avibactam

Compound: Nc1nnc([C@@H]2CC[C@@H]3CN2C(=O)N3OS(=O)(=O)O)o1 [Compound 707, (2S,5R)-2-(5-amino-1,3,4-oxadiazol-2-yl)-7-oxo-1,6-diazabicyclo[3.2.1]octan-6-yl hydrogen sulfate]
- activity against bacterial strains that express the class D cephalosporinase OXA-15, compared with Avibactam: more active than Avibactam

Compound: NCC(N)c1nnc([C@@H]2CC[C@@H]3CN2C(=O)N3OS(=O)(=O)O)o1 (stereo partly drawn) [Compound 717, (2S,5R)-2-(5-(1,2-diaminoethyl)-1,3,4-oxadiazol-2-yl)-7-oxo-1,6-diazabicyclo[3.2.1]octan-6-yl hydrogen sulfate]
- activity against bacterial strains that express the class D cephalosporinase OXA-15, compared with Avibactam: more active than Avibactam

Compound: O=C1N2C[C@@H](CC[C@H]2c2nnc(CCCN3CCNCC3)o2)N1OS(=O)(=O)O [Compound 792, (2S,5R)-7-oxo-2-(5-(3-(piperazin-1-yl)propyl)-1,3,4-oxadiazol-2-yl)-1,6-diazabicyclo[3.2.1]octan-6-yl hydrogen sulfate]
- activity against bacterial strains that express the class D cephalosporinase OXA-15, compared with Avibactam: more active than Avibactam

Compound: NCC(O)c1nnc([C@@H]2CC[C@@H]3CN2C(=O)N3OS(=O)(=O)O)o1 (stereo partly drawn) [Compound 715, (2S,5R)-2-(5-(2-amino-1-hydroxyethyl)-1,3,4-oxadiazol-2-yl)-7-oxo-1,6-diazabicyclo[3.2.1]octan-6-yl hydrogen sulfate]
- activity against bacterial strains that express the class D cephalosporinase OXA-15, compared with Avibactam: more active than Avibactam

Compound: O=C1N2C[C@@H](CC[C@H]2c2nnc(N3CCNCC3)o2)N1OS(=O)(=O)O [Compound 713, (2S,5R)-7-oxo-2-(5-(piperazin-1-yl)-1,3,4-oxadiazol-2-yl)-1,6-diazabicyclo[3.2.1]octan-6-yl hydrogen sulfate]
- activity against bacterial strains that express the class D cephalosporinase OXA-15, compared with Avibactam: more active than Avibactam

Compound: O=C1N2C[C@@H](CC[C@H]2c2nnc([C@@H]3CNCCN3)o2)N1OS(=O)(=O)O [Compound 778, (2S,5R)-7-oxo-2-(5-((S)-piperazin-2-yl)-1,3,4-oxadiazol-2-yl)-1,6-diazabicyclo[3.2.1]octan-6-yl hydrogen sulfate]
- activity against bacterial strains that express the class D cephalosporinase OXA-15, compared with Avibactam: more active than Avibactam

Compound: O=C1N2C[C@@H](CC[C@H]2c2nnc(C3CCNCC3)s2)N1OS(=O)(=O)O [Compound 719, (2S,5R)-7-oxo-2-(5-(piperidin-4-yl)-1,3,4-thiadiazol-2-yl)-1,6-diazabicyclo[3.2.1]octan-6-yl hydrogen sulfate]
- activity against bacterial strains that express the class D cephalosporinase OXA-15, compared with Avibactam: more active than Avibactam

Compound: NCC(O)Cc1nnc([C@@H]2CC[C@@H]3CN2C(=O)N3OS(=O)(=O)O)o1 (stereo partly drawn) [Compound 733, (2S,5R)-2-(5-(3-amino-2-hydroxypropyl)-1,3,4-oxadiazol-2-yl)-7-oxo-1,6-diazabicyclo[3.2.1]octan-6-yl hydrogen sulfate]
- activity against bacterial strains that express the class D cephalosporinase OXA-15, compared with Avibactam: more active than Avibactam

Compound: NCCNCCc1nnc([C@@H]2CC[C@@H]3CN2C(=O)N3OS(=O)(=O)O)o1 [Compound 716, (2S,5R)-2-(5-(2-((2-aminoethyl)amino)ethyl)-1,3,4-oxadiazol-2-yl)-7-oxo-1,6-diazabicyclo[3.2.1]octan-6-yl hydrogen sulfate]
- activity against bacterial strains that express the class D cephalosporinase OXA-15, compared with Avibactam: more active than Avibactam

Compound: N[C@H]1CC[C@H](c2nnc([C@@H]3CC[C@@H]4CN3C(=O)N4OS(=O)(=O)O)o2)CC1 [Compound 781, (2S,5R)-2-(5-((1r,4S)-4-aminocyclohexyl)-1,3,4-oxadiazol-2-yl)-7-oxo-1,6-diazabicyclo[3.2.1]octan-6-yl hydrogen sulfate]
- activity against bacterial strains that express the class D cephalosporinase OXA-15, compared with Avibactam: more active than Avibactam

Compound: N[C@H]1C[C@H](NCc2nnc([C@@H]3CC[C@@H]4CN3C(=O)N4OS(=O)(=O)O)o2)C1 [Compound 757, (2S,5R)-2-(5-((((1r,3S)-3-aminocyclobutyl)amino)methyl)-1,3,4-oxadiazol-2-yl)-7-oxo-1,6-diazabicyclo[3.2.1]octan-6-yl hydrogen sulfate]
- activity against bacterial strains that express the class D cephalosporinase OXA-15, compared with Avibactam: more active than Avibactam

Compound: N=C(N)NCc1nnc([C@@H]2CC[C@@H]3CN2C(=O)N3OS(=O)(=O)O)o1 [Compound 704, (2S,5R)-2-(5-(guanidinomethyl)-1,3,4-oxadiazol-2-yl)-7-oxo-1,6-diazabicyclo[3.2.1]octan-6-yl hydrogen sulfate]
- activity against bacterial strains that express the class D cephalosporinase OXA-15, compared with Avibactam: more active than Avibactam

Compound: N=C(N)N1CCC(c2nnc([C@@H]3CC[C@@H]4CN3C(=O)N4OS(=O)(=O)O)o2)CC1 [Compound 712, (2S,5R)-2-(5-(1-carbamimidoylpiperidin-4-yl)-1,3,4-oxadiazol-2-yl)-7-oxo-1,6-diazabicyclo[3.2.1]octan-6-yl hydrogen sulfate]
- activity against bacterial strains that express the class D cephalosporinase OXA-15, compared with Avibactam: more active than Avibactam

Compound: N=C(N)N[C@H]1C[C@H](c2nnc([C@@H]3CC[C@@H]4CN3C(=O)N4OS(=O)(=O)O)o2)C1 [Compound 748, (2S,5R)-2-(5-((1r,3S)-3-guanidinocyclobutyl)-1,3,4-oxadiazol-2-yl)-7-oxo-1,6-diazabicyclo[3.2.1]octan-6-yl hydrogen sulfate]
- activity against bacterial strains that express the class D cephalosporinase OXA-15, compared with Avibactam: more active than Avibactam

Compound: NC1CCN(c2nnc([C@@H]3CC[C@@H]4CN3C(=O)N4OS(=O)(=O)O)o2)CC1 [Compound 773, (2S,5R)-2-(5-(4-aminopiperidin-1-yl)-1,3,4-oxadiazol-2-yl)-7-oxo-1,6-diazabicyclo[3.2.1]octan-6-yl hydrogen sulfate]
- activity against bacterial strains that express the class D cephalosporinase OXA-15, compared with Avibactam: more active than Avibactam

Compound: O=C1N2C[C@@H](CC[C@H]2c2nnc(CNC3CCNCC3)o2)N1OS(=O)(=O)O [Compound 769, (2S,5R)-7-oxo-2-(5-((piperidin-4-ylamino)methyl)-1,3,4-oxadiazol-2-yl)-1,6-diazabicyclo[3.2.1]octan-6-yl hydrogen sulfate]
- activity against bacterial strains that express the class D cephalosporinase OXA-15, compared with Avibactam: more active than Avibactam

Compound: O=C1N2C[C@@H](CC[C@H]2c2nnc(N3CCNCC3)s2)N1OS(=O)(=O)O [Compound 797, (2S,5R)-7-oxo-2-(5-(piperazin-1-yl)-1,3,4-thiadiazol-2-yl)-1,6-diazabicyclo[3.2.1]octan-6-yl hydrogen sulfate]
- activity against bacterial strains that express the class D cephalosporinase OXA-15, compared with Avibactam: more active than Avibactam

Compound: O=C1N2C[C@@H](CC[C@H]2c2nnc(CC3CNC3)o2)N1OS(=O)(=O)O [Compound 725, (2S,5R)-2-(5-(azetidin-3-ylmethyl)-1,3,4-oxadiazol-2-yl)-7-oxo-1,6-diazabicyclo[3.2.1]octan-6-yl hydrogen sulfate]
- activity against bacterial strains that express the class D cephalosporinase OXA-15, compared with Avibactam: more active than Avibactam
